# Measured values reported in ChEMBL document CHEMBL1147974, “Metabolic activation of indole-containing prostaglandin D2 receptor 1 antagonists: impacts of glutathione trapping and glucuronide conjugation on covalent binding” (Bioorg Med Chem Lett, 2007).
# Legend:
# [1] = test system: Liver microsomes; experiment: Covalent binding in rat liver microsomes after 60 mins assessed as GSH adduct formation; format: ADME, Microsome; details: 1 h
# [2] = test system: Liver microsomes; experiment: Covalent binding in human liver microsomes at 10 uM after 1 hr; format: ADME, Microsome
# [3] = test system: Liver microsomes; experiment: Covalent binding in human liver microsomes after 60 mins assessed as GSH adduct formation; format: ADME, Microsome; details: 1 h
# [4] = test system: Liver microsomes; experiment: Covalent binding in rat liver microsomes at 10 uM after 1 hr; format: ADME, Microsome
# [5] = test system: Hepatocyte; experiment: Covalent binding in human hepatocytes at 10 uM after 1 hr; format: ADME, cell-based
# [6] = test system: Hepatocyte; experiment: Covalent binding in rat hepatocytes at 10 uM after 1 hr; format: ADME, cell-based
SMILES,Activity [1] [%],Activity [2] [pmol/mg],Activity [3] [%],Activity [4] [pmol/mg],Activity [5] [pmol/mg],Activity [6] [pmol/mg]
O=C(O)C[C@H]1CCc2c1n(Cc1ccc(Cl)cc1)c1c(Br)cc(F)cc21,22,33,5,460,33,74
CC(=O)c1cc(F)cc2c3c(n(Cc4ccc(Cl)cc4)c12)[C@@H](CC(=O)O)CC3,41,46,15,290,16,45
CC(=O)c1cc(S(C)(=O)=O)cc2c3c(n(Cc4ccc(Cl)cc4)c12)[C@@H](CC(=O)O)CC3,< 0.5,18,< 0.5,23,5,8
